In patent US10316039B2, “P2X3 and/or P2X2/3 compounds and methods” (Asana Biosciences, LLC, priority 2013, dated 2019) one finds IC50 data, which are given here for 15 molecules.

The structures appear in SMILES notation.

In assay [1] the target is T1, P2X3 (UniProt P56373).
T1 sequence (P56373 1-397): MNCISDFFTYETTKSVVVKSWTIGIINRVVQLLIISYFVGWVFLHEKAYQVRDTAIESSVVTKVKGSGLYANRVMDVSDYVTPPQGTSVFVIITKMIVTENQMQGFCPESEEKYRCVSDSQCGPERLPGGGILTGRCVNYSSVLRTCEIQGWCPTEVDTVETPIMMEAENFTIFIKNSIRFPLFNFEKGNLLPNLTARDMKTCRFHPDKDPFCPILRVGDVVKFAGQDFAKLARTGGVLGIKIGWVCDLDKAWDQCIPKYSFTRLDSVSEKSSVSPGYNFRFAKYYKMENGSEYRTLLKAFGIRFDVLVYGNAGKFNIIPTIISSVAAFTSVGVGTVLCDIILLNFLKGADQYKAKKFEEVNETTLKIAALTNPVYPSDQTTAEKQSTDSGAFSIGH
In words: P2X3 FLIPR intracellular calcium assay. Type of assay: cell-based. The following applies: agonist at EC75, species (human or rat) not given. An excerpt:
The FLIPR® assay utilizes cells which express human or rat P2X3 or P2X2/3 receptors. […] The PCR product obtained containing the protein coding sequence of rat P2X2 was cloned into EcoRV-digested and dephosphorylated vector pIRES-puro3 within the multiple cloning site (MCS). See, FIG. 1A.
Rat P2X3 (NCBI Accession No: X91167) was amplified by PCR from rat brain cDNA. The PCR product obtained containing the protein coding sequence of rat P2X3 was cloned into EcoRV-digested and dephosphorylated vector pCDNA-Hygro within the multiple cloning site (MCS) (FIG. 1B). Rat P2X3 cloned into pcDNA-Hygro was then subcloned into pcDNA-5/TO at HindIII (5′) and XhoI (3′) sites within the multiple cloning site (MCS) of the vector (FIG. 1C).
(§1) Transfection was carried out using super-coiled constructs (purified using QIAGEN kit) in antibiotic free, serum free DMEM using Lipofectamine® 2000 (Invitrogen) transfection agent. The DNA constructs rat P2X2 in pIRES-Puro3 and rat P2X3 in pCDNA5/TO were co-transfected into TRex293 cells in order to generate the rP2X2/3 stable line. 50 μg/mL hygromycin (Invitrogen) and 0.5 μg/mL puromycin (Fermentek) were used for selection of stable clones of rP2X2/3. Rat P2X3 in pCDNA5/TO DNA construct was transfected to CHO-TRex cells to generate the rP2×3 stable line and 500 μg/mL hygromycin (Invitrogen) was used as selection antibiotic. Transfected stable colonies were then functionally verified and robust clones suitable for assay were clonally purified through dilutions.
(§2) Cryo-vial containing 6×10^6 cells (human P2X3-HEK/human P2X2/3-TRex293/rat P2X2/3-TRex293/rat P2X3 TRex-CHO) was thawed in a 37° C. water bath. Cells were suspended in 20 mL of respective cell plating media (See annexure for composition) in a 50 mL centrifuge tube. The cell viability was checked with the help of Trypan Blue dye. Upon washing, cells were plated in a black 384-well clear bottomed, sterile poly-D-lysine coated plate such that, each well contained 10,000 cells (15,000/well for hP2X3) in 30 μL cell plating media. The plate was incubated in a 5% CO2 incubator at 37° C. for 24 h.
(§3) The next day, prior to the assay, the cell plating media was removed from each well by decanting and gentle tapping. Thirty μL of FLIPR Calcium 4 dye solution was added to each well. The plate was incubated at 37° C. for 45 min (60 min for hP2X3). The plate was next equilibrated at room temperature for 15 minutes before placing it in a 384 well FLIPR for the assay.
Dilutions were mixed with assay buffer just before performing the assay.
(§4) Compounds were added to the respective wells of the assay-ready cell plate with the help of the FLIPR and fluorescence readings were captured for 5 min to observe any possible agonistic property of the compounds. The plate was then incubated at room temperature for 15 min. The cells were stimulated with respective agonist EC75 concentration and the fluorescence readings were captured for another 5 min by FLIPR. The difference in fluorescence readings in presence of the compounds were compared with that of the control wells (wells having no compound) to calculate the inhibitory potency of the compounds. The IC50 values of the compounds were determined using the Graph pad Prism software.
(vi) Dye Solution Composition • 1×FLIPR Calcium 4 dye in assay buffer (Molecular devices Cat# R8141) • 1.8 mM Probenecid (Sigma Cat# P8761) • pH adjusted to 7.4

Assay [2] concerns the target T2, P2X2/3 (Homo sapiens, UniProt P56373+Q9UBL9).
T2 sequence (Q9UBL9 1-471): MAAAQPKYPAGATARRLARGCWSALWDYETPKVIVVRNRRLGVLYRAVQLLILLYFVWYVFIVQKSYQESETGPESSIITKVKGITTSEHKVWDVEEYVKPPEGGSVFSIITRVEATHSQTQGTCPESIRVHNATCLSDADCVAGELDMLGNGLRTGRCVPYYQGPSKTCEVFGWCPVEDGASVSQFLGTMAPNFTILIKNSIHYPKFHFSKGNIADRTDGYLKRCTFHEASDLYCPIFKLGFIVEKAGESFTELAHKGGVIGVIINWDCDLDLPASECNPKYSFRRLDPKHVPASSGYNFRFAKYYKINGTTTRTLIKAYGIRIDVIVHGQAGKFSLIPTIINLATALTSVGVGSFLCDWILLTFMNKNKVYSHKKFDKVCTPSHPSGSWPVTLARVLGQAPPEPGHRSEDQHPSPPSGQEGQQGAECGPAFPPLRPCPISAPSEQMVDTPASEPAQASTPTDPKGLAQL
T2 sequence (P56373 1-397): T1 sequence (P56373 1-397)
Nature of the assay: P2X2/3 FLIPR intracellular calcium assay. The assay is classed as cell-based. The following applies: agonist at EC75, species (human or rat) not given.
Description: The FLIPR® assay utilizes cells which express human or rat P2X3 or P2X2/3 receptors. Recombinant cells expressing hP2X3 (Cat#6188) and hP2X2/3 (Cat#6179) were procured from Chantest Corp. Rat P2X2 (NCBI Accession No: U14414) was amplified by PCR from PC12 cDNA (a rat adrenal medulla cell line). The PCR product obtained containing the protein coding sequence of rat P2X2 was cloned into EcoRV-digested and dephosphorylated vector pIRES-puro3 within the multiple cloning site (MCS). See, FIG. 1A.
as §1, §2, §3
Compounds were dissolved in DMSO and serially diluted following 11 point half log (3.16 fold) dilution with a starting concentration of 2 mM. Dilutions were mixed with assay buffer just before performing the assay.
as §4
(ii) Cell Plating Media for hP2X3-HEK and hP2X2/3-TRex293 Cells • DMEM/F12 (1:1) HAM media (Invitrogen; Cat#11039) • 1×NEAA (Invitrogen; Cat#11140) • 25 mM HEPES (Invitrogen; Cat#15630) • 1 mM sodium pyruvate (Invitrogen; Cat#11360) • 10% tetracycline negative FBS (PAA; Cat# A15-209) • 1 μg/mL doxycycline (Clontech; Cat#63131) [for hP2X2/3-TRex293 cells only]
(iii) Cell Plating Media for rP2X2/3-TRex293 Cells • DMEM media (Invitrogen; Cat#11965) • 25 mM HEPES (Invitrogen; Cat#15630) • 10% tetracycline negative FBS (PAA; Cat# A15-209) • 1 μg/mL Doxycycline (Clontech; Cat#63131)
(v) Assay Buffer Composition • HBSS (Invitrogen Cat#14025) • 20 mM HEPES (Invitrogen Cat#15630) • 0.01% F127 (Sigma Cat# P2443) • 1.8 mM CaCl2 (Sigma Cat# C5080) • pH adjusted to 7.4 […]

In the case of `Cc1noc(C(C)NC(=O)c2cc(-n3nnnc3C(F)F)c3ncc(-c4ccc(C)s4)n3c2)n1` (stereo in doubt) [Example 19, (R)-8-(5-(Difluoromethyl)-1H-tetrazol-1-yl)-N-(1-(3-methyl-1,2,4-oxadiazol-5-yl)ethyl)-3-(5-methylthiophen-2-yl)imidazo[1,2-a]pyridine-6-carboxamide], the concentration for half-maximal inhibition (IC50) in assay [1] and in assay [2] was 1 to 100 nM throughout.

`CCc1nnc(-c2cc(C(=O)N[C@@H](C)c3nnc[nH]3)cn3c(-c4ccc(C)s4)cnc23)o1` [Example 1, (S)—N-(1-(4H-1,2,4-Triazol-3-yl)ethyl)-8-(5-ethyl-1,3,4-oxadiazol-2-yl)-3-(5-methylthiophen-2-yl)imidazo[1,2-a]pyridine-6-carboxamide]: the concentration for half-maximal inhibition (IC50) – broadly, the concentration at which inhibition is half-maximal – is 100 to 1000 nM in assay [1] and 1000 to 10000 nM in assay [2]. Take `Cc1ccc(CNC(=O)c2cc(-n3c(C)cnc3C)c3ncc(-c4ccc(C)s4)n3c2)cn1` [Example 2, 8-(2,5-Dimethyl-1H-imidazol-1-yl)-N-((6-methylpyridin-3-yl)methyl)-3-(5-methylthiophen-2-yl)imidazo[1,2-a]pyridine-6-carboxamide]: the IC50 in assay [1] is above 10000 nM; in assay [2] it was 100 to 1000 nM. For `Cc1ccc(-c2cnc3c(-n4c(C)nnc4C)cc(C(=O)N[C@@H](C)c4nnc[nH]4)cn23)s1` [Example 3, (S)—N-(1-(4H-1,2,4-Triazol-3-yl)ethyl)-8-(3,5-dimethyl-4H-1,2,4-triazol-4-yl)-3-(5-methylthiophen-2-yl)imidazo[1,2-a]pyridine-6-carboxamide], in that order: 1000 to 10000 nM and 100 to 1000 nM. Consider `Cc1ccc(-c2cnc3c(-n4nncc4C(F)F)cc(C(=O)N[C@@H](C)c4nnc[nH]4)cn23)s1` [Example 4, (S)—N-(1-(4H-1,2,4-Triazol-3-yl)ethyl)-8-(5-(difluoromethyl)-1H-1,2,3-triazol-1-yl)-3-(5-methylthiophen-2-yl)imidazo[1,2-a]pyridine-6-carboxamide], for which the half-inhibitory concentration (IC50) in assay [1] and in assay [2] was 1 to 100 nM throughout.

Regarding `Cc1ccc(CNC(=O)c2cc(-n3nncc3C(F)F)c3ncc(-c4nnc(C)s4)n3c2)cn1` [Example 5, 8-(5-(Difluoromethyl)-1H-1,2,3-triazol-1-yl)-3-(5-methyl-1,3,4-thiadiazol-2-yl)-N-((6-methylpyridin-3-yl)methyl)imidazo[1,2-a]pyridine-6-carboxamide], the half-maximal inhibitory concentration (IC50) in assay [1] and in assay [2] was 100 to 1000 nM each time. Turning to `CCc1ccnn1-c1cc(C(=O)NCc2ccc(C)nc2)cn2c(-c3ccc(C)s3)cnc12` [Example 6, 8-(5-Ethyl-1H-pyrazol-1-yl)-N-((6-methylpyridin-3-yl)methyl)-3-(5-methylthiophen-2-yl)imidazo[1,2-a]pyridine-6-carboxamide], the concentration for half-maximal inhibition (IC50) in assay [1] is above 10000 nM; in assay [2], 100 to 1000 nM.

Take `Cc1ccc(-c2cnc3c(Nc4ccccc4)cc(C(=O)N[C@@H](C)c4nnc[nH]4)cn23)s1` [Example 7, (S)—N-(1-(4H-1,2,4-Triazol-3-yl)ethyl)-3-(5-methylthiophen-2-yl)-8-(phenylamino)imidazo[1,2-a]pyridine-6-carboxamide]: the half-maximal inhibitory concentration (IC50) in assay [1] lay within 1 to 100 nM; in assay [2], 100 to 1000 nM.

Consider `Cc1ccc(-c2cnc3c(-c4cnn(C)c4)cc(C(=O)N[C@@H](C)c4nnc[nH]4)cn23)s1` [Example 8, (S)—N-(1-(4H-1,2,4-Triazol-3-yl)ethyl)-8-(1-methyl-1H-pyrazol-4-yl)-3-(5-methylthiophen-2-yl)imidazo[1,2-a]pyridine-6-carboxamide], for which the IC50 lay in the range of 1 to 100 nM in assay [1] and 100 to 1000 nM in assay [2].

Take `CCCSc1cnc2c(N3CCC(C)CC3)cc(C(=O)N[C@@H](C)c3nnc[nH]3)cn12` [Example 10, (S)—N-(1-(4H-1,2,4-Triazol-3-yl)ethyl)-8-(4-methylpiperidin-1-yl)-3-(propylthio)imidazo[1,2-a]pyridine-6-carboxamide]: the IC50 in assay [1] fell in the range of 100 to 1000 nM; in assay [2] it was 1000 to 10000 nM. Consider `Cc1ccc(-c2cnc3c(N4CCC(C)CC4)cc(C(=O)N[C@@H](C)c4nnc[nH]4)cn23)s1` [Example 11, (S)—N-(1-(4H-1,2,4-Triazol-3-yl)ethyl)-8-(4-methylpiperidin-1-yl)-3-(5-methylthiophen-2-yl)imidazo[1,2-a]pyridine-6-carboxamide], for which the IC50 was 1 to 100 nM in assay [1] and 100 to 1000 nM in assay [2].

`Cc1ccc(-c2cnc3c(N4CCC(C)(C(N)=O)CC4)cc(C(=O)N[C@@H](C)c4nnc[nH]4)cn23)s1` [Example 12, (S)—N-(1-(4H-1,2,4-Triazol-3-yl)ethyl)-8-(4-carbamoyl-4-methylpiperidin-1-yl)-3-(5-methylthiophen-2-yl)imidazo[1,2-a]pyridine-6-carboxamide]: the concentration for half-maximal inhibition (IC50) in assay [1] and in assay [2] was 1 to 100 nM in each case. On to `Cc1ccc(CNC(=O)c2cc(-n3nncc3C(F)F)c3ncc(-c4ccc(C)s4)n3c2)cn1` [Example 27], for which the IC50 in assay [1] lay in the range of 1 to 100 nM. For the molecule `Cc1ccc(-c2cnc3c(N4CCC(F)(F)CC4)cc(C(=O)N[C@@H](C)c4cc[nH]n4)cn23)s1` [Example 143], in assay [1], the half-maximal inhibitory concentration (IC50) is 1000 to 10000 nM.

On to `COc1ccc(CNC(=O)c2cc(-n3nnnc3C3CCC3)c3ncc(-c4ccc(C)s4)n3c2)cc1` [Example 163], for which the concentration for half-maximal inhibition (IC50) in assay [1] is above 10000 nM.
